Data on nine compounds can be found in publication PMC12408681, “Tail-less precursors in synthetic cannabinoid production: investigating a clandestine laboratory, seized samples, and CB1 activity” (Archives of Toxicology, 2025).

Where “and” joins values, the source holds several entries; their conditions need not be identical. Identical values can stand only once.

Assay [1] has as its target T1, human CB1 (Homo sapiens, UniProt P21554). Description: NanoBiT CB1 β-arrestin 2 recruitment assay. The assay is classed as cell-based. Also on record: expressed in transfected cells. As to conditions: for Efficacy (Emax) Mean Diff: CP55,940 as reference.
Target sequence in this assay (P21554 whole entry): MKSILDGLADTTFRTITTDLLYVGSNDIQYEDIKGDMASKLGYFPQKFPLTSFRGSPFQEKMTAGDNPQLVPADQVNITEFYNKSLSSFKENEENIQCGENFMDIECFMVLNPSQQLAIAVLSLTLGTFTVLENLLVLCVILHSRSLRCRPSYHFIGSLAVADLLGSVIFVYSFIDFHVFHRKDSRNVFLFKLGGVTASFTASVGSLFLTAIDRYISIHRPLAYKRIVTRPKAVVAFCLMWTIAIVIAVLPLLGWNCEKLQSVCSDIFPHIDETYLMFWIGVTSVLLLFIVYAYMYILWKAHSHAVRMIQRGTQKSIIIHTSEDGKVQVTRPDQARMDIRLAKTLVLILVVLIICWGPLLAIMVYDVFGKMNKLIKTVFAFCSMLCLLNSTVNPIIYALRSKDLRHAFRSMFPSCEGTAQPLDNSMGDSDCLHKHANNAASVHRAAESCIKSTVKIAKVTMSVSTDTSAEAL
Target sequence in this assay (P32121 whole entry partner): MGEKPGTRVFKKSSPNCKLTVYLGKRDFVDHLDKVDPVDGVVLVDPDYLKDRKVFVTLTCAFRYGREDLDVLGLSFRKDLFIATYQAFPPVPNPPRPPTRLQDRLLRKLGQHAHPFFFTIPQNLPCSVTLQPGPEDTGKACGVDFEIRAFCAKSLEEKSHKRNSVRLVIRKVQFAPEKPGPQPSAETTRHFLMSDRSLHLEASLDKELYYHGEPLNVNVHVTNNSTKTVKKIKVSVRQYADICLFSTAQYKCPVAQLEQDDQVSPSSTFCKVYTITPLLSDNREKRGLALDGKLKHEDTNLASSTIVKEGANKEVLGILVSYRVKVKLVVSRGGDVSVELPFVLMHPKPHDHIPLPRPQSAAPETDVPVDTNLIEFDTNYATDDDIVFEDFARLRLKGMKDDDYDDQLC
Assay [2] concerns the target T1, human CB1. Description: AequoScreen CB1 intracellular Ca2+ release assay. The assay is classed as cell-based. More on the design: host or cells: CHO-K1 (AequoZen recombinant cell line).
Target sequence in this assay (P21554 whole entry): as the sequence (P21554 whole entry) above
In assay [3] the test system is paclitaxel-induced peripheral neuropathy. More on the design: method as in one study (reference not given). The note with it: rats; ref one study (reference not given); cited from earlier work.
[4] abbreviates: vs 5% MDMB-4en-PINACA, only concentration of final product in mixture.
The mark [5] stands for this setting: vs 5% MDMB-4en-PINACA, total concentration of SCRAs in mixture.
Setting [6] is: vs 25% MDMB-4en-PINACA, only concentration of final product in mixture.
The mark [7] stands for this setting: vs 25% MDMB-4en-PINACA, total concentration of SCRAs in mixture.
Where [8] appears, read: vs 50% MDMB-4en-PINACA, only concentration of final product in mixture.
[9] abbreviates: vs 50% MDMB-4en-PINACA, total concentration of SCRAs in mixture.
The mark [10] stands for this setting: vs 75% MDMB-4en-PINACA, only concentration of final product in mixture.
Setting [11] is: vs 75% MDMB-4en-PINACA, total concentration of SCRAs in mixture.
The mark [12] stands for this setting: Table 5, Ref (reference standard).
The mark [13] stands for this setting: Table 5, Ref (reference standard), read-out: Potency (EC50, nM) β-arrestin 2.
The mark [14] stands for this setting: Table 5, Ref (reference standard), read-out: Potency (EC50, nM) AequoScreen.
[15] abbreviates: Potency (EC50, nM) β-arrestin 2, Table 4, reference standards and precursor:final SCRA mixtures, total (combined) SCRA concentration, n ≥ 3.
[16] abbreviates: Potency (EC50, nM) β-arrestin 2, Table 5, Ref (reference standard).
The mark [17] stands for this setting: Table 4, reference standards and mixtures, total SCRA concentration.
[18] abbreviates: Potency (EC50, nM) AequoScreen, Table 4, reference standards and mixtures, total SCRA concentration, n ≥ 3.
Setting [19] is: Potency (EC50, nM) AequoScreen, Table 5, Ref (reference standard).

In the case of `COC(=O)[C@@H](NC(=O)c1n[nH]c2ccccc12)C(C)(C)C` [100% MDMB-INACA], the “Efficacy (Emax) Mean Diff” value is 550.8 on human CB1 [1] (setting [4]); 539.7 on human CB1 [1] (setting [5]); 569.4 at human CB1 [1] (setting [6]); 560.7 on human CB1 [1] (setting [7]); 558.2 at human CB1 [1] (setting [8]); 545.8 at human CB1 [1] (setting [9]). The “Efficacy (Emax) Mean Diff” value at human CB1 [1] (setting [10]) was found to be 521.9; on human CB1 [1] (setting [11]), 510.6; on human CB1 [1] (vs 100% MDMB-4en-PINACA, only concentration of final product in mixture), 536.7; at human CB1 [1] (vs 100% MDMB-4en-PINACA, total concentration of SCRAs in mixture) it was 536.7; on human CB1 [2] (vs 5% MDMB-4en-PINACA, only concentration of final product in mixture, JWH-018 as reference) it was 2.037; on human CB1 [2] (vs 5% MDMB-4en-PINACA, total concentration of SCRAs in mixture, JWH-018 as reference), 6.744. Also, the “Efficacy (Emax) Mean Diff” value on human CB1 [2] (vs 25% MDMB-4en-PINACA, only concentration of final product in mixture, JWH-018 as reference) is -0.07601; at human CB1 [2] (vs 25% MDMB-4en-PINACA, total concentration of SCRAs in mixture, JWH-018 as reference), 2.036; at human CB1 [2] (vs 50% MDMB-4en-PINACA, only concentration of final product in mixture, JWH-018 as reference) it was 9.030; at human CB1 [2] (vs 50% MDMB-4en-PINACA, total concentration of SCRAs in mixture, JWH-018 as reference), -0.07656; at human CB1 [2] (vs 75% MDMB-4en-PINACA, only concentration of final product in mixture, JWH-018 as reference) it was 6.745; on human CB1 [2] (vs 75% MDMB-4en-PINACA, total concentration of SCRAs in mixture, JWH-018 as reference), 9.029. For the same compound, the “Efficacy (Emax) Mean Diff” value at human CB1 [2] (vs 100% MDMB-4en-PINACA, only concentration of final product in mixture, JWH-018 as reference) is listed as 8.229; on human CB1 [2] (vs 100% MDMB-4en-PINACA, total concentration of SCRAs in mixture, JWH-018 as reference) it was 8.229.
Turning to `COC(=O)[C@@H](NC(=O)c1n[nH]c2ccccc12)C(C)(C)C` [MDMB-INACA (ref)], the “Efficacy (Emax) Mean Diff” value on human CB1 [1] (vs MDMB-INACA (seizure)) is -144.0; on human CB1 [2] (vs MDMB-INACA (seizure), CP55,940 as reference), 1.797.
For `CCCCn1nc(C(=O)N[C@H](C(N)=O)C(C)(C)C)c2ccccc21` [100% ADB-BUTINACA], the “Efficacy (Emax) Mean Diff” value at human CB1 [1] (vs 5% ADB-BUTINACA, only concentration of final product in mixture) came to 76.63; at human CB1 [1] (vs 5% ADB-BUTINACA, total concentration of SCRAs in mixture) it was 98.60; at human CB1 [1] (vs 25% ADB-BUTINACA, only concentration of final product in mixture) it was 52.66; at human CB1 [1] (vs 25% ADB-BUTINACA, total concentration of SCRAs in mixture), 66.35; on human CB1 [1] (vs 50% ADB-BUTINACA, only concentration of final product in mixture), 144.9; on human CB1 [1] (vs 50% ADB-BUTINACA, total concentration of SCRAs in mixture) it was 155.6. In addition, the “Efficacy (Emax) Mean Diff” value at human CB1 [1] (vs 75% ADB-BUTINACA, only concentration of final product in mixture) amounted to 60.28; on human CB1 [1] (vs 75% ADB-BUTINACA, total concentration of SCRAs in mixture), 70.25.
On to `COC(=O)C(NC(=O)c1n[nH]c2ccccc12)C(C)(C)C` (stereo not shown) [MDMB-INACA], for which the “Efficacy (% of CP55,940) Emax β-arrestin 2” value is reported as 294 % of CP55,940 at human CB1 [1] (setting [12]) and 438 % of CP55,940 on human CB1 [1] (Table 5, Seizure (precursor seized in Switzerland)). The concentration giving a half-maximal response (EC50) on human CB1 [1] (setting [13]) was determined as 2400 nM; at human CB1 [1] (Table 5, Seizure (precursor seized in Switzerland), read-out: Potency (EC50, nM) β-arrestin 2) it was 2190 nM; on human CB1 [2] (setting [14]), 11200 nM; at human CB1 [2] (Table 5, Seizure (precursor seized in Switzerland), read-out: Potency (EC50, nM) AequoScreen) it was 7610 nM. Besides, the “Analgesic effects on paclitaxel-induced peripheral neuropathy” value in assay [3] is reported as “analgesic effects”.
For the compound `CCCCn1nc(C(=O)NC(C(N)=O)C(C)(C)C)c2ccccc21` (stereo not shown) [ADB-BUTINACA], the EC50 on human CB1 [1] (setting [15]) is 6.7 nM and 6.73 nM; on human CB1 [1] (setting [16]) it was 5.65 nM; at human CB1 [2] (setting [18]) it was 5.6 nM and 5.64 nM; on human CB1 [2] (setting [19]), 7.27 nM. Besides, the “Efficacy (% of CP55,940) Emax β-arrestin 2” value at human CB1 [1] (setting [17]) was 1282 % of CP55,940 and 1280 % of CP55,940; at human CB1 [1] (setting [12]), 1330 % of CP55,940. Moreover, the “Efficacy (% of JWH-018) Emax AequoScreen” value on human CB1 [2] (setting [17]) was 105 % of JWH-018; at human CB1 [2] (setting [12]), 111 % of JWH-018.
For `C=CCCCn1nc(C(=O)N[C@H](C(=O)OC)C(C)(C)C)c2ccccc21` [100% MDMB-4en-PINACA], the “Efficacy (Emax) Mean Diff” value at human CB1 [1] (setting [4]) is recorded as -14.08; at human CB1 [1] (setting [5]), -3.010; at human CB1 [1] (setting [6]), -32.68; at human CB1 [1] (setting [7]), -24.05; at human CB1 [1] (setting [8]), -21.46; on human CB1 [1] (setting [9]), -9.133. Moreover, the figures for the “Efficacy (Emax) Mean Diff” value at human CB1 [1] (setting [10]) and on human CB1 [1] (setting [11]) were 14.76 and 26.09, respectively.
Turning to `CCCCCn1cc(C(=O)c2cccc3ccccc23)c2ccccc21` [JWH-018, reference compound], the entries for the “Efficacy (% of CP55,940) Emax β-arrestin 2” value on human CB1 [1] (setting [17]) and at human CB1 [1] (setting [12]) were 335 % of CP55,940 and 352 % of CP55,940, respectively. Also, the EC50 came out at 9.55 nM at human CB1 [1] (Table 4, reference standards and precursor:final SCRA mixtures, total (combined) SCRA concentration, n ≥ 3, read-out: Potency (EC50, nM) β-arrestin 2); 11 nM at human CB1 [1] (setting [13]); 5.14 nM on human CB1 [2] (Table 4, reference standards and mixtures, total SCRA concentration, n ≥ 3, read-out: Potency (EC50, nM) AequoScreen); 13.5 nM at human CB1 [2] (setting [14]). The “Efficacy (% of JWH-018) Emax AequoScreen” value on human CB1 [2] (setting [17]) was 97.6 % of JWH-018; at human CB1 [2] (setting [12]), 99.8 % of JWH-018.
As to `C=CCCCn1nc(C(=O)NC(C(=O)OC)C(C)(C)C)c2ccccc21` (stereo not shown) [MDMB-4en-PINACA, methyl 3,3-dimethyl-2-(1-(pent-4-en-1-yl)-1H-indazole-3-carboxamido)butanoate], the half-maximal effective concentration (EC50) on human CB1 [1] (setting [15]) was 1.8 nM; at human CB1 [1] (setting [16]) it was 1.8 nM; on human CB1 [2] (setting [18]), 1.2 nM and 1.17 nM; at human CB1 [2] (setting [19]), 1.89 nM. Also, the “Efficacy (% of CP55,940) Emax β-arrestin 2” value is 1088 % of CP55,940 and 1090 % of CP55,940 at human CB1 [1] (setting [17]); 1090 % of CP55,940 on human CB1 [1] (setting [12]). The entries for the “Efficacy (% of JWH-018) Emax AequoScreen” value at human CB1 [2] (setting [17]) and on human CB1 [2] (setting [12]) were 104 % of JWH-018 and 109 % of JWH-018, respectively.
Regarding `CC(C)(C)C(NC(=O)c1n[nH]c2ccccc12)C(N)=O` (stereo not shown) [ADB-INACA], the “Analgesic effects on paclitaxel-induced peripheral neuropathy” value in assay [3] is listed as “analgesic effects”.
